≈ marks a conversion by molar mass, not a printed value.
Legend:
[1] = Intrinsic clearance in mouse liver microsomes; format: ADME, Microsome
[2] = Aqueous solubility of compound; format: physicochemical
[3] = Selectivity index, ratio of CC50 for human MRC5 cells to EC50 for antimalarial activity against Plasmodium falciparum 3D7; format: toxicity; details: read-out: Selectivity Index
Plasmodium falciparum [4] = experiment: Antimalarial activity against Plasmodium falciparum 3D7; format: functional, organism-based
Plasmodium berghei [5] = experiment: Antimalarial activity against Plasmodium berghei infected in mouse assessed as reduction in parasitemia at 1 mg/kg, po dosed 4 times; format: functional
Plasmodium berghei [6] = experiment: Antimalarial activity against Plasmodium berghei infected in orally dosed mouse assessed as reduction in parasitemia; format: functional; details: po
Plasmodium falciparum [7] = experiment: Antimalarial activity against drug resistant Plasmodium falciparum D6; format: functional, organism-based
Plasmodium falciparum [8] = experiment: Antimalarial activity against drug resistant Plasmodium falciparum V1/S; format: functional, organism-based
Plasmodium falciparum [9] = experiment: Antimalarial activity against drug resistant Plasmodium falciparum 7G8; format: functional, organism-based
Plasmodium falciparum [10] = experiment: Antimalarial activity against drug resistant Plasmodium falciparum TM90C2A; format: functional, organism-based
Plasmodium falciparum [11] = experiment: Antimalarial activity against drug resistant Plasmodium falciparum K1; format: functional, organism-based
Plasmodium falciparum [12] = experiment: Antimalarial activity against drug resistant Plasmodium falciparum W2; format: functional, organism-based
Plasmodium falciparum [13] = experiment: Antimalarial activity against drug resistant Plasmodium falciparum NF5; format: functional, organism-based

**Q.** With `Cc1ccc(-c2cc(C(=O)Nc3cccnc3)c3cc(Br)ccc3n2)cc1` as the compound, how does the Intrinsic clearance [1] read?
**A.** Its Intrinsic clearance is “>= 5 ml/min/g”.

**Q.** What about the solubility [2] of the same compound?
**A.** Its solubility is ≤ 39 µM.

**Q.** And the selectivity ratio [3]?
**A.** The selectivity ratio was > 100.

**Q.** With `Cc1ccc(-c2cc(C(=O)Nc3cccnc3)c3cc(F)ccc3n2)cc1` as the compound, how does the Intrinsic clearance [1] read?
**A.** Its Intrinsic clearance is 8.6 mL/min/g.

**Q.** And the solubility [2]?
**A.** Its solubility is 36 µM (≈ 12.9 µg/mL).

**Q.** Which results are given for `Cc1ccc(-c2cc(C(=O)NCCN3CCCC3)c3cc(F)ccc3n2)cc1`?
**A.** Intrinsic clearance [1]: 3.4 mL/min/g; EC50 (Plasmodium falciparum [4]): 700 nM

**Q.** What does the source list for `O=C(NCCN1CCCC1)c1cc(-c2ccc(CN3CCOCC3)cc2)nc2ccc(F)cc12` [CABAMIQUINE]?
**A.** inhibition in vivo at 1 mg/kg (Plasmodium berghei [5]): > 99%; ED90 (Plasmodium berghei [6]): 0.3 mg/kg; EC50 (Plasmodium falciparum [7]): < 1 nM; EC50 (Plasmodium falciparum [8]): < 1 nM; EC50 (Plasmodium falciparum [9]): < 1 nM; EC50 (Plasmodium falciparum [10]): < 1 nM; EC50 (Plasmodium falciparum [11]): < 1 nM; EC50 (Plasmodium falciparum [12]): < 1 nM; EC50 (Plasmodium falciparum [13]): < 1 nM; Intrinsic clearance [1]: < 0.9 mL/min/g; EC50 (Plasmodium falciparum [4]): 1 nM

Source: ChEMBL document CHEMBL4715792, “In Vivo and In Vitro Optimization of Screening Antimalarial Hits toward Lead Molecules for Preclinical Development” (J Med Chem, 2016)
